Assay results published in patent US20070021357A1, “Treatment of inflammatory conditions” (Dynamis Therapeutics, Inc., priority 2005, published 2007).
Several values for one entry are separate records, joined by “and”; a condition that tells them apart may be missing. Equal values may be shown once. Each block holds one molecule with its values, some of them ahead of it.

Columns and labels:
[1] = molecular target: T1, Calf skin collagen Type I (Bos taurus, UniProt P02453+P02465); test: 3DG-induced collagen crosslinking, CNBr digestion and SDS-PAGE; format: biochemical; settings: 37° C., 24 hours
T1 construct: Calf skin collagen Type I (1.3 mg; Sigma); purchased Sigma; host or cells: calf skin
T1 sequence (P02453 162-1217 limits assumed): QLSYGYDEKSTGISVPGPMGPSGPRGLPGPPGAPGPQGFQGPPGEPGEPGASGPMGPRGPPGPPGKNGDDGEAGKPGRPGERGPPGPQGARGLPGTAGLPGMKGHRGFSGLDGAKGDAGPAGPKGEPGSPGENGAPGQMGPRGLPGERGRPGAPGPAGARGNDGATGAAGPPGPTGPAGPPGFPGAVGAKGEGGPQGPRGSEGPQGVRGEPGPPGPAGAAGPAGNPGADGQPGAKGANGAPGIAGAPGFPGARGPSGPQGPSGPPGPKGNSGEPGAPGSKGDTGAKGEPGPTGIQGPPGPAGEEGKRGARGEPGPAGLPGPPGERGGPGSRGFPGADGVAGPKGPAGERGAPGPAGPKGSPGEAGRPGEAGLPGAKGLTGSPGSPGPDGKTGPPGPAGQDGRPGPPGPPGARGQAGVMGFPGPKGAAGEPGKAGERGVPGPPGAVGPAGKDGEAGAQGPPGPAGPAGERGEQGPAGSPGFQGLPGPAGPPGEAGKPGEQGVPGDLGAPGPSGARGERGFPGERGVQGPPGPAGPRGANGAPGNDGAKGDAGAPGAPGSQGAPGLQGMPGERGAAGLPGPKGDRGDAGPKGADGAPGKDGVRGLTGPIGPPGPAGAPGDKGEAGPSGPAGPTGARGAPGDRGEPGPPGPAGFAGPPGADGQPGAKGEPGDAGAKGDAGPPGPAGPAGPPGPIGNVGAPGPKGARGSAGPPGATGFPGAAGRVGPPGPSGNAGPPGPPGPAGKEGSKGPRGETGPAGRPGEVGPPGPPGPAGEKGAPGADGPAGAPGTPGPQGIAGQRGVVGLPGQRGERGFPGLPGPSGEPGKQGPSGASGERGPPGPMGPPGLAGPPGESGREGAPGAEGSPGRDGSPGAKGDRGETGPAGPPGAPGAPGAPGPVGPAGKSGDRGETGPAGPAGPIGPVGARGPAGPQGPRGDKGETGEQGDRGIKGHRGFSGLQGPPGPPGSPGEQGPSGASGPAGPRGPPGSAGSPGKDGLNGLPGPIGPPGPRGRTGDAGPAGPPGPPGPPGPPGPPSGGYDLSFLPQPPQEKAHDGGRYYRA
T1 sequence (P02465 80-1117 limits assumed): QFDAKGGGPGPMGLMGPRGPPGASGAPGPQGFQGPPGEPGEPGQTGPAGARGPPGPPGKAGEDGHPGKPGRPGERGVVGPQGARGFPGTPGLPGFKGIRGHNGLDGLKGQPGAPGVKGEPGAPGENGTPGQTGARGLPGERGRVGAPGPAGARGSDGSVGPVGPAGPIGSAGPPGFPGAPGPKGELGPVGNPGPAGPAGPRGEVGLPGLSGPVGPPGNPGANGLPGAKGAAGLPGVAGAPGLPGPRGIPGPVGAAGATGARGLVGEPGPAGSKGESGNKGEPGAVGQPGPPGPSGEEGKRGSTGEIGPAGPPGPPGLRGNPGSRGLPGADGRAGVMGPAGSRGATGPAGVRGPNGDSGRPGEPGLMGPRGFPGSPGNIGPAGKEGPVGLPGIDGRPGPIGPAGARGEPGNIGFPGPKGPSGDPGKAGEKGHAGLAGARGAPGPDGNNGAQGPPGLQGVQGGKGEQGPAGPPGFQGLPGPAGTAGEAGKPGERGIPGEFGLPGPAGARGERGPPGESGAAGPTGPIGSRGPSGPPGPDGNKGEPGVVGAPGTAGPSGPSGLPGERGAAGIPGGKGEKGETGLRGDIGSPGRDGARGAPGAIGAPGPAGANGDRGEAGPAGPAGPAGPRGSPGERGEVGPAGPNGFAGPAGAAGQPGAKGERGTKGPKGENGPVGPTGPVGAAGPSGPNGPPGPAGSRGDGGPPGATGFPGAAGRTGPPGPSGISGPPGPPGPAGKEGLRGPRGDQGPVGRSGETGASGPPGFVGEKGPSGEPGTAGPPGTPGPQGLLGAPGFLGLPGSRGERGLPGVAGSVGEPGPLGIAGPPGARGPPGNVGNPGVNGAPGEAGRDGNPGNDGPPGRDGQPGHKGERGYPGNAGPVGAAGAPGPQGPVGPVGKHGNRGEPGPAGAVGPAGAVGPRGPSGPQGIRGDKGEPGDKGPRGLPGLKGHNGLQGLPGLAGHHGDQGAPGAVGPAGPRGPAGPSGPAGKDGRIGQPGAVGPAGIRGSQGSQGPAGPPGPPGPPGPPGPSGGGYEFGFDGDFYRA
Experimental: Collagen type I was treated with 3DG in the presence or absence of arginine. The samples were subjected to cyanogen bromide (CNBr) digestion, electrophoresed on a 16.5% SDS Tris-tricine gel, and then the gels were processed using silver stain techniques to visualize the proteins. Lane 1 contains molecular weight marker standards. Lanes 2 and 5 contain 10 and 20 μl of the collagen mixture following CNBr digestion. Lanes 3 and 6 contain the collagen mixture treated with 3DG and then digested with CNBr, and loaded at 10 and 20 μl, respectively. Lanes 4 and 7 contain the mixture of collagen incubated with 5 mM 3DG and 10 mM arginine and then digested with CNBr, and loaded at 10 and 20 μl, respectively.
Collagen I was incubated in the presence or absence of 3DG in vitro. Calf skin collagen Type I (1.3 mg; Sigma) was incubated in 20 mM Na-phosphate buffer, pH 7.25, either alone, with 5 mM 3DG, or with 5 mM 3DG plus 10 mM arginine, in a total volume of 1 ml at 37° C. for 24 hours and then frozen and lyophilized. The residue was dissolved in 0.5 ml of 70% formic acid and cyanogen bromide was added (20:1, w/w). This solution was incubated at 30° C. for 18 hours. […] The extent of collagen crosslinking was determined by applying equal volumes of sample and analyzing by SDS-PAGE electrophoresis (16.5% Tris-tricine gel), as determined by the effects of 3DG on the migration of collagen.

[2] = Locus of 3-O-methyl sorbitollysine uptake in vivo (tissues, urine, plasma); set-up: species or system rats
Experimental: […] Urine was collected for 3 hours, after which the rats were sacrificed. The tissues to be analyzed were removed and freeze clamped in liquid nitrogen. Perchloric acid extracts of the tissues were used for metabolite analysis. The tissues examined were taken from the brain, heart, muscle, sciatic nerve, spleen, pancreas, liver, and kidney. Plasma was also analyzed.

3DG [3] = settings: Kappler et al., 2002; cited from earlier work
STZ-diabetic rats = test: Skin elasticity measurement (vacuum pull) in STZ-diabetic and normal rats; format: in vivo; settings: 50 mg/kg daily, eight weeks, p=0.39
Experimental: Experiments were performed to determine the effects of DYN 12 on the loss of skin elasticity associated with diabetes. To this end, two groups of STZ-diabetic rats and two groups of normal rats were subjected to treatment with DYN 12 or saline. One group of STZ-diabetic rats (n=9) received daily subcutaneous injections of DYN 12 at 50 mg/kg for eight weeks, as did one group of normal rats (n=6). A group of control diabetic rats (n=10) and a group of normal rats (n=6) received saline instead of DYN 12. One rat was removed from the diabetic DYN 12 group after 2 weeks because its blood glucose readings were inconsistent (too low) with other diabetic rats.
A non-invasive procedure based on CyberDERM, Inc. technology utilizing a skin elasticity measurement device was used to test the effects of DYN 12 treatment on skin elasticity. The procedure provides for non-invasive measurement of skin elasticity based upon the amount of vacuum pull required to displace skin. A suction cup probe is adhered to an area of shaved skin in order to form an airtight seal. Then, a vacuum is applied to the area of the skin inside the suction cup until the skin is displaced past a sensor located inside the probe. Accordingly, the more pressure that is required to displace the skin, the less elastic the skin is.

diabetic rats = test: Skin elasticity/muscle strength measurement on alert, restrained rats; format: in vivo; settings: preliminary data
Experimental: FIG. 15 is graphic illustration of the effects of DYN 12 (3-O-methylsorbitollysine) treatment on skin elasticity. Diabetic or normal rats were treated with DYN 12 (50 mg/kg daily) or saline for eight weeks and then subjected to skin elasticity tests. The four groups used included diabetic controls (saline injection; solid black bar), diabetics treated with DYN 12 (open bar), normal animal controls (saline injections; stippled bar), and normal animals treated with DYN 12 (cross-hatched bar). Data are expressed in kilopascals (kPA) and are shown as averages of the results obtained with each particular group of test subjects. Measurements were taken on the hind leg of the test subjects and were taken on an alert animal restrained by a technician.
Skin elasticity measurements were also taken on the test subjects as described above, but without sedating the test animals before measurement. FIG. 15 illustrates skin elasticity measurements taken on the hind leg of the test subjects while the subjects were alert and being restrained by a technician.
In these experiments, the animals were fiercely fighting restraint and the results are different.

3DG [4] = test: Plasma 3DG levels in diabetic and non-diabetic rats; format: in vivo; settings: 50 mg/kg body weight injections in saline, within one week
Experimental: A cohort of twelve diabetic rats was divided into two groups of six. The first group received saline-only injections, and the second received injections of 3-O-methyl sorbitollysine (50 mg/kg body weight) in saline solution. The same procedure was conducted on a cohort of twelve non-diabetic rats.

[5] = set-up: species or system human; settings: in vivo
Experimental: 260 g of casein, 120 g of glucose and 720 ml of water were mixed to give a homogeneous mixture. This mixture was transferred to a metal plate and heated at 65° C. for 68 hours. The resulting cake was then pulverized to a coarse powder.
Volunteers spent two days on a fructoselysine-free diet and then consumed 22.5 g of the food product prepared as described herein, thus effectively receiving a 2 gram dose of fructoselysine. Urine was collected at 2 hour intervals for 14 hours and a final collection was made at 24 hours.
FL was measured by HPLC with a Waters 996 diode Array using a Waters C18 Free Amino Acid column at 46° C. and a gradient elution system of acetonitrile-methyl alcohol-water (45:15:40) into acetonitrile-sodium acetate-water (6:2:92) at 1 ml/min. Quantitation employed an internal standard of meglumine.
3DF was measured by HPLC after deionization of the sample. Analyses were performed on a Dionex DX-500 HPLC system employing a PA1 column (Dionex) and eluting with 32 mM sodium hydroxide at 1 ml/min. Quantitation was performed from standard curves obtained daily with synthetic 3DF.
3DG was measured by GC-MS after deionization of the sample. 3DG was derivatized with a 10-fold excess of diaminonaphthalene in PBS. […] Quantitation of 3DG employed selected ion monitoring using an internal standard of U-13C-3DG.

amadorase = test: Amadorase-dependent production of 3DG in vitro; format: biochemical; settings: FL 2.6 mM, after 24 hours
[6] = tested on: kinase activity in the kidney cortex; test: Radioactive assay of FL3P production from FL and ATP; format: biochemical, pig; settings: 10 mM FL, 10 mM γ33P-ATP, 30 minutes at 37° C., pH 7.5
Experimental: A 3 g sample of fresh pig kidney cortex was homogenized in 9 ml of 50 mM Tris.HCl containing 150 mM KCl, 5 mM DTT, 15 mM MgCl2, pH 7.5. This was centrifuged at 10,000 g for 30 minutes, and then the supernatant was centrifuged at 100,000 g for 60 minutes. Ammonium sulfate was added to 60% saturation. After 1 hour at 4° C. the precipitate was collected by centrifugation and dissolved in 5 ml. of original buffer. A 2 ml aliquot of this solution was incubated with 10 mM ATP and 10 mM of FL (prepared as in Example 1, above) for 2 hours at 37° C. The reaction was quenched with 300 μl of perchloric acid, centrifuged to remove protein, and desalted on a column of Sephadex G 10 (5×10 cm). ^31P NMR analysis of the reaction mixture detected formation of FL3P.
Based on the proof of kinase activity thus obtained, a radioactive assay was developed. This assay was designed to take advantage of the binding to Dow-50 cation exchange resin by FL3P. This characteristic of FL3P was discovered during efforts to isolate it. […] A 0.5 ml volume of supernatant was pipetted into 10 ml of Ecoscint A and counted. […] The relationship between rates of FL3P production and enzyme concentration was determined using triplicate determinations with 1, 2, and 4 mg of protein for 30 minutes at 37° C. Blanks run concurrently without FL were subtracted and the data recorded. […]

mouse mesangial cells = test: Type IV collagen production in kidney cells in vitro; format: cell-based
Experimental: Type IV collagen production was measured in mouse mesangial cells. Controls (grown with […]) produced 300 ng of Type IV collagen per 10,000 cells, whereas fructoselysine treated cells (5 or 10 mM fructoselysine with 10 mM glucose) produced 560 and 1100 ng/10,000 cells.

3-deoxyglucosone = test: Reduction of urinary and plasma 3-deoxyglucosone in rats after intraperitoneal injection; format: in vivo; settings: 10 μmols intraperitoneal, plasma at end of three hours vs before
Experimental: Urine was collected from six rats for three hours. A plasma sample was also obtained. The animals were then given 10 μmols of either sorbitollysine, mannitollysine, or galactitollysine by intraperitoneal injection. Urine was collected for another three hours, and a plasma sample obtained at the end of the three hours.
a. 3-deoxyglucosone was measured in the samples, as described in Example 5, below, and variable volumes were normalized to creatinine. The average reduction of urinary 3-deoxyglucosone was 50% by sorbitollysine, 35% by mannitollysine and 35% by galactitollysine. Plasma 3-deoxyglucosone was reduced 40% by sorbitollysine, 58% by mannitollysine and 50% by galactitollysine.
Three rats were treated as in b), immediately above, except meglumine (100 μmols) was injected intraperitoneally instead of the above-mentioned lysine derivatives. Three hours after the injection the average 3-deoxyglucosone concentrations in the urine were decreased 42%.
3DG was measured by GC-MS after deionization of the sample. 3DG was derivatized with a 10-fold excess of diaminonaphthalene in PBS. Ethyl acetate extraction gave a salt free fraction which was converted to the trimethyl silyl ethers with Tri-Sil (Pierce). Analysis was performed on a Hewlett-Packard 5890 selected ion monitoring GC-MS system. GC was performed on a fused silica capillary column (DB-5.25 mx.25 mm) using the following temperature program: injector port 250° C., initial column temperature 150° C. which is held for 1 minute, then increased to 290° C. at 16° C./minute and held for 15 minutes. Quantitation of 3DG employed selected ion monitoring using an internal standard of U-13C-3DG.

3DG [7] = settings: disclosed in WO 98/33492; cited from earlier work

Structure (SMILES): O=CC(=O)C[C@H](O)[C@H](O)CO [3DG, 3-deoxyglucosone, reference compound]
collagen crosslinking (migration of collagen on gel) ([1]; collagen I with 5 mM 3DG): migrate as if it had a higher molecular weight

only tissue extract found to contain the compound ([2]; brain, heart, muscle, sciatic nerve, spleen, pancreas, liver, kidney examined 3 hours after i.p. injection): kidney
Structure (SMILES): COC(C(O)CNCCCCC(N)C(=O)O)C(O)C(O)CO (centres unmarked) [DYN 12, 3-O-methylsorbitollysine]
total 3OMeSL recovered ([2]; individual rats, urine plus kidneys, 13500 nmols injected, listed as 3OMeSL, in nmol): 12355 and 5235 and 13011 and 8257 and 7151 and 7193
% 3OMeSL recovered ([2]; individual rats, urine plus kidneys, of injected dose, listed as 3OMeSL): 91.5% and 38.8% and 96.4% and 61.2% and 53.0% and 53.3%
3DG levels in the plasma of diabetic and non-diabetic animals (3DG [3]): reduces 3DG levels
elasticity value in treated diabetic rats compared with non-diabetic rats treated with saline (STZ-diabetic rats): not statistically different
muscle strength measured while alert, vs diabetic rats not so treated (diabetic rats): stronger muscle strength
plasma 3DG levels (3DG [4]; Diabetic rats): 0.44 ± 0.10 µM
plasma 3DG levels (3DG [4]; Non-diabetic rats): 0.13 ± 0.02 µM

time of peak urinary 3DF excretion after the bolus [5]: about 4 hours
3DG (amadorase; Reaction 1: Amadorase +, ATP +): 1.58 mM
FL3P (amadorase; Reaction 1: Amadorase +, ATP +): 0.2 mM
3DG (amadorase; Reaction 2: Amadorase +, ATP −): 0.08 mM
FL3P (amadorase; Reaction 2: Amadorase +, ATP −): 0 mM
3DG (amadorase; Reaction 3: Amadorase −, ATP +): 0.09 mM
FL3P (amadorase; Reaction 3: Amadorase −, ATP +): 0 mM
3DG (amadorase; Reaction 4: Amadorase −, ATP −): 0.08 mM
FL3P (amadorase; Reaction 4: Amadorase −, ATP −): 0 mM
approximate FL3P synthesis rate [6]: ~20 nmols/hr/mg protein
Structure (SMILES): NC(CCCCNCC(=O)C(O)C(O)C(O)CO)C(=O)O (centres unmarked) [FL, 1-deoxy-1-(ε-aminolysine)-fructose]
Type IV collagen produced (mouse mesangial cells; 5 mM fructoselysine with 10 mM glucose): 560 ng/10,000 cells
Type IV collagen produced (mouse mesangial cells; 10 mM fructoselysine with 10 mM glucose): 1100 ng/10,000 cells

Structure (SMILES): N=C(N)NCCC[C@H](N)C(=O)O [arginine]
inhibition of 3DG induced collagen crosslinking (high molecular weight bands on gel) ([1]; collagen I with 5 mM 3DG plus 10 mM arginine): fewer high molecular bands

Structure (SMILES): N[C@@H](CCCCNC[C@H](O)[C@@H](O)[C@@H](O)[C@H](O)CO)C(=O)O [galactitollysine]
Plasma 3-deoxyglucosone reduced (3-deoxyglucosone): 50%
urinary or plasma 3DG (3DG [7]): can be reduced

Structure (SMILES): N[C@@H](CCCCNC[C@@H](O)[C@@H](O)[C@H](O)[C@H](O)CO)C(=O)O [mannitollysine]
Plasma 3-deoxyglucosone reduced (3-deoxyglucosone): 58%
urinary or plasma 3DG (3DG [7]): can be reduced

Structure (SMILES): CNC[C@H](O)[C@@H](O)[C@H](O)[C@H](O)CO [meglumine, reference compound]
urinary or plasma 3DG (3DG [7]): can be reduced

Structure (SMILES): N[C@@H](CCCCNC[C@H](O)[C@@H](O)[C@H](O)[C@H](O)CO)C(=O)O [sorbitollysine]
Plasma 3-deoxyglucosone reduced (3-deoxyglucosone): 40%
urinary or plasma 3DG (3DG [7]): can be reduced
